Experimental data reported in patent publication US7169604B1, “Method for PR-39 peptide mediated selective inhibition of IκBα degradation” (Beth Israel Deaconess Medical Center, priority 1998, dated 2007).
Ends that are not written are not given here.

Tests used:
NFκB [1] = assay: NFκB-dependent luciferase reporter (pNFκB-Luc) in ECV304 cells; format: cell-based, human; conditions: 45 min pretreatment with 10 nM, TNF-α 1 ng/ml
Experimental: The results are presented by FIG. 2A.
The effect of PR-39-mediated inhibition of IκBα degradation on NFκB-dependent transcription was tested in ECV304 cells transiently transfected with pNFκB-Luc reporter vector.

NFκB [2] = assay: NFκB electromobility shift assay in mouse pancreas, caerulein-induced pancreatitis; format: in vivo; conditions: 10 mg/kg i.v. 1 hour before caerulein; 30 min later
[3] = Infarct size in mice, ischemia-reperfusion injury; format: in vivo; conditions: infusion prior to restoration of flow
Source text: • a. Inhibition of ischemia-reperfusion injury. Restoration of blood flow to the myocardium in the setting of acute myocardial infarction leads to further damage to ischemic but still live heart muscle due to an influx of inflammatory blood cells that is mediated by NFκB-activated expression of endothelial adhesion molecules ICAM-1 and VCAM-1. Infusion of PR39 prior to restoration of flow blocks this effect due to inhibition of NFκB activity and effectively protects from further myocardial injury. […] Inhibition of chemical pancreatitis. Tissue injury in the pancreas due to chemical or hormonal injury is one of the more common causes of acute pancreatitis. This is largely mediated by NFκB. Pre-treatment with PR39 blocks this injury. • c. PR39 will block any other injury activated NFκB-dependent gene transcription and thus can be used to block the development of skin wounds, ulcers (stomach, duodenum), etc.

ECV304 cells = assay: Cell growth in culture (Coulter cell counts); format: cell-based, human; conditions: 10 μM, 48 hours
Experimental: Prolonged exposure to proteasome inhibitors tend to induce apoptosis in cell culture. To assess the potential cytotoxicity of PR-39, ECV304 cells were cultured in the presence of 10 μM of PR-39, MG132 or lactacystin.
50,000 ECV304 cells were plated in 6 well plates in 10% FBS-M199 and synchronized by serum deprivation in 0.5% FBS-DMEM for 48 hr. At the end of that time, cell culture medium was changed to 10% FBS-M199 and 10 μM of PR-39, lactacystin or buffer (control) were added. Forty eight hours later cell counts were determined using a Coulter Counter (Coulter Instruments, Inc.). All experiments were performed in triplicate and repeated 2 times (mean±SD).

IκBα-VCP = target: T1, IκBα-VCP (Homo sapiens, UniProt P25963+P55072); assay: IκBα-VCP binding (IκBα immunoprecipitation, anti-VCP Western blot) in ECV304 cells; format: cell-based; conditions: wild type ECV304 cells, 10 μM pretreatment, TNF-α 1 ng/ml
T1 construct: endogenous in cells; host or cells: wild type ECV304
Source text: Wild type ECV304 cells (treated as described in FIG. 4C) were subjected to immunoprecipitation with anti-IκBα antibody (IκBα-IP) followed by Western blotting with anti-VCP-3 antibody (1:3000, dilution; a kind gift of Dr. C. C. Li (NIH)). Note the presence of 90 kD VCP band in the presence or absence of PR-39 treatment.
Pretreatment with PR-39 increased the amount of VCP in the IκBα immunoprecipitate (FIG. 4D) as would be expected given the increased amount of ubiquitinated forms of IκBα in the PR-39-treated cells.

T1 sequence (P25963 whole entry): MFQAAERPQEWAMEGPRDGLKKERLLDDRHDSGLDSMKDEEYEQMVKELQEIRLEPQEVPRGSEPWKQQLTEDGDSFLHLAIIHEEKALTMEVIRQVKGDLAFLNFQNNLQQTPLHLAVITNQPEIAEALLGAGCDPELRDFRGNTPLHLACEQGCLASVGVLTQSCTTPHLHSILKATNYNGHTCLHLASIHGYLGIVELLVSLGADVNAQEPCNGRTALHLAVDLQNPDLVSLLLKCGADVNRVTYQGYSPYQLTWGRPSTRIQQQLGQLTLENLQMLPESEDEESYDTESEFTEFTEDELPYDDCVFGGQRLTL
T1 sequence (P55072 2-806 limits assumed): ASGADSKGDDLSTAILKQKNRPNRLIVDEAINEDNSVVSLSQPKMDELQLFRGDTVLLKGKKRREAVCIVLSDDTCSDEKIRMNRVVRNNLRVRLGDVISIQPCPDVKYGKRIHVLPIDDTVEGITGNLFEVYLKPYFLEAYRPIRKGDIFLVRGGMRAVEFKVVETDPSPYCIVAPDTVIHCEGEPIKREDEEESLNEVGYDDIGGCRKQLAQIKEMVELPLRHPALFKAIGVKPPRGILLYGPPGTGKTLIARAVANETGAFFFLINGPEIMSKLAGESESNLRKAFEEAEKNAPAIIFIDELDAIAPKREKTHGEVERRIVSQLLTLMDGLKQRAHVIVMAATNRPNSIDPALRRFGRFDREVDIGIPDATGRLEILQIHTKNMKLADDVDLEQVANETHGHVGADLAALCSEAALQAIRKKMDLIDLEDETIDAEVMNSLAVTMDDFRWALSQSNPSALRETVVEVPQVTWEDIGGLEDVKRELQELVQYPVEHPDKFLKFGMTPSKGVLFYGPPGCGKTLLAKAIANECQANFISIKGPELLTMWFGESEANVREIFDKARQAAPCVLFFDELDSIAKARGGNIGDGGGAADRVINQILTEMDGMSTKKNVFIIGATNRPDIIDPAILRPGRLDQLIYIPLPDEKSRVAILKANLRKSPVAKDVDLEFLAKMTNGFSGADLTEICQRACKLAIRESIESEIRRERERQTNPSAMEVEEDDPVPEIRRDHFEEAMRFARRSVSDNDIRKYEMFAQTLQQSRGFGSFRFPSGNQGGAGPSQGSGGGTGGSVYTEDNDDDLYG

For “RRRPRPPYLPRPRPPPFFPPRLPPRIPPGFPPRFPPRFP [PR-39]”, the “TNF-α induced increase in luciferase activity” value (NFκB [1]) was “completely blocked”, the “NFκB gel shift in mouse pancreas” value (NFκB [2]) was “almost complete disappearance of NFκB gel shift” and the “reduction of infarct size” value [3] was 60%. The cell counts (ECV304 cells) was “lack of significant growth inhibition” and the IκBα-VCP binding (IκBα-VCP) was “does not inhibit IκBα-VCP binding”.
